pEC50: −log10 of the molar value.
Legend:
[1] = system: recombinant NL4-3 virus (nef section replaced with Renilla luciferase gene) in MT-2 cells; assay: HIV cell culture assay (antiviral activity, luciferase readout in infected MT-2 cells); type: cell-based; conditions: NL43
Procedure: HIV cell culture assay—MT-2 cells, 293T cells and the proviral DNA clone of NL4-3 virus were obtained from the NIH AIDS Research and Reference Reagent Program. MT-2 cells were propagated in RPMI 1640 media supplemented with 10% heat inactivated fetal bovine serum (FBS), […]. The 293T cells were propagated in DMEM media supplemented with 10% heat inactivated FBS, […]. A recombinant NL4-3 proviral clone, in which a section of the nef gene was replaced with the Renilla luciferase gene, was used to make the reference virus used in these studies. The recombinant virus was prepared through transfection of the recombinant NL4-3 proviral clone into 293T cells using Transit-293 Transfection Reagent from Minis Bio LLC (Madison, Wis.). Supernatent was harvested after 2-3 days and the amount of virus present was titered in MT-2 cells using luciferase enzyme activity as a marker by measuring luciferase enzyme activity. Luciferase was quantitated using the EnduRen Live Cell Substrate from Promega (Madison, Wis.). Antiviral activities of compounds toward the recombinant virus were quantified by measuring luciferase activity in MT-2 cells infected for 4-5 days with the recombinant virus in the presence of serial dilutions of the compound.
The 50% effective concentration (EC5o) was calculated by using the exponential form of the median effect equation where (Fa)=1/[1+(ED50/drug conc.)m] (Johnson Va., Byington R T. Infectivity Assay. In Techniques in HIV Research. ed. Aldovini A, Walker B D. 71-76. New York: Stockton Press.1990). The 50% inhibitory concentration (EC50) was calculated by using the exponential form of the median effect equation where percent inhibition=1/[1 +(EC50/drug concentration)m], where m is a parameter that reflects the slope of the concentration-response curve.

[2] = Compound cytotoxicity, XTT-based colorimetric assay; type: cell-based; conditions: human; uninfected MT2 cells, day 4, XTT
Procedure: Compound cytotoxicity and the corresponding CC50 values were determined using the same protocol as described in the antiviral assay except that uninfected cells were used. Cytotoxicity was assessed on day 4 in uninfected MT2 cells by using a XTT (2,3-bis[2-Methoxy-4-nitro-5-sulfophenyl]-2H-tetrazolium-5-carboxyanilide inner salt)-based colorimetric assay (Sigma-Aldrich, St Louis, Mo).

Row | Structure (SMILES) | pEC50 [1] | CC50 at 4 day [2]
1 | CS(=O)(=O)Nc1nn(CC(F)F)c2c(-n3c([C@H](Cc4cc(F)cc(F)c4)NC(=O)Cn4nc(C(F)F)c5c4C(F)(F)[C@@H]4C[C@H]54)nc4cc(C5=CCOCC5)ccc4c3=O)ccc(Cl)c12 (atropisomer, axis not shown; (P)) [Example 15, N—((S)-1-((3P)-3-(4-chloro-1-(2,2-difluoroethyl)-3-(methylsulfonamido)-1H-indazol-7-yl)-7-(3,6-dihydro-2H-pyran-4-yl)-4-oxo-3,4-dihydroquinazolin-2-yl)-2-(3,5-difluorophenyl)ethyl)-2-((3bS,4aR)-3-(difluoromethyl)-5,5-difluoro-3b,4,4a,5-tetrahydro-1H-cyclopropal3,41cyclopenta[1,2-c]pyrazol-1-yl)acetamide] | 10.03 | > 500 nM
2 | CS(=O)(=O)Nc1nn(CC(F)F)c2c(-n3c([C@H](Cc4cc(F)cc(F)c4)NC(=O)Cn4nc(C(F)F)c5c4C(F)(F)[C@@H]4C[C@H]54)nc4cc(C5CCOCC5)ccc4c3=O)ccc(Cl)c12 (atropisomer, axis not shown; (P)) [Example 17, N—((S)-1-((3P)-3-(4-chloro-1-(2,2-difluoroethyl)-3-(methylsulfonamido)-1H-indazol-7-yl)-4-oxo-7-(tetrahydro-2H-pyran-4-yl)-3,4-dihydroquinazolin-2-yl)-2-(3,5-difluorophenyl)ethyl)-2-((3bS,4aR)-3-(difluoromethyl)-5,5-difluoro-3b,4,4a,5-tetrahydro-1H-cyclopropal3,41cyclopenta[1,2-c]pyrazol-1-yl)acetamide] | 10.22 | > 500 nM
3 | O=C(Cn1nc(C(F)F)c2c1C(F)(F)[C@@H]1C[C@H]21)N[C@@H](Cc1cc(F)cc(F)c1)c1nc2cc(C3CCOCC3)ccc2c(=O)n1-c1ccc(Cl)c2c(NS(=O)(=O)C3CC3)nn(CC(F)F)c12 (atropisomer, axis not shown; (P)) [Example 18] | 10.08 | > 500 nM
4 | C[C@@H]1CC(c2ccc3c(=O)n(-c4ccc(Cl)c5c(NS(C)(=O)=O)nn(C)c45)c([C@H](Cc4cc(F)cc(F)c4)NC(=O)Cn4nc(C(F)F)c5c4C(F)(F)[C@@H]4C[C@H]54)nc3c2)=C[C@H](C)O1 (atropisomer, axis not shown; (P)) [Example 19, N—((S)-1-((3P)-3-(4-chloro-1-methyl-3-(methylsulfonamido)-1H-indazol-7-yl)-7-((2R,6S)-2,6-dimethyl-3,6-dihydro-2H-pyran-4-yl)-4-oxo-3,4-dihydroquinazolin-2-yl)-2-(3,5-difluorophenyl)ethyl)-2-((3bS,4aR)-3-(difluoromethyl)-5,5-difluoro-3b,4,4a,5-tetrahydro-1H-cyclopropa[3,4]cyclopenta[1,2-c]pyrazol-1-yl)acetamide] | 10.10 | > 500 nM
5 | C[C@@H]1CC(c2ccc3c(=O)n(-c4ccc(Cl)c5c(NS(C)(=O)=O)nn(CC(F)F)c45)c([C@H](Cc4cc(F)cc(F)c4)NC(=O)Cn4nc(C(F)F)c5c4C(F)(F)[C@@H]4C[C@H]54)nc3c2)=C[C@H](C)O1 (atropisomer, axis not shown; (P)) [Example 20, N—((S)-1-((3P)-3-(4-chloro-1-(2,2-difluoroethyl)-3-(methylsulfonamido)-1H-indazol-7-yl)-7-((2R,6S)-2,6-dimethyl-3,6-dihydro-2H-pyran-4-yl)-4-oxo-3,4-dihydroquinazolin-2-yl)-2-(3,5-difluorophenyl)ethyl)-2-((3bS,4aR)-3-(difluoromethyl)-5,5-difluoro-3b,4,4a,5-tetrahydro-1H-cyclopropa[3,4]cyclopenta[1,2-c]pyrazol-1-yl)acetamide] | 9.89 | > 500 nM
6 | C[C@@H]1CC(c2ccc3c(=O)n(-c4ccc(Cl)c5c(NS(=O)(=O)C6CC6)nn(CC(F)F)c45)c([C@H](Cc4cc(F)cc(F)c4)NC(=O)Cn4nc(C(F)F)c5c4C(F)(F)[C@@H]4C[C@H]54)nc3c2)=C[C@H](C)O1 (atropisomer, axis not shown; (P)) [Example 21, N—((S)-1-((3P)-3-(4-chloro-3-(cyclopropanesulfonamido)-1-(2,2-difluoroethyl)-1H-indazol-7-yl)-7-((2R,6S)-2,6-dimethyl-3,6-dihydro-2H-pyran-4-yl)-4-oxo-3,4-dihydroquinazolin-2-yl)-2-(3,5-difluorophenyl)ethyl)-2-((3bS,4aR)-3-(difluoromethyl)-5,5-difluoro-3b,4,4a,5-tetrahydro-1H-cyclopropa[3,4]cyclopenta[1,2-c]pyrazol-1-yl)acetamide] | 9.85 | > 500 nM
7 | COC(C)(C)CCc1ccc2c(=O)n(-c3ccc(Cl)c4c(NS(C)(=O)=O)nn(C)c34)c([C@H](Cc3cc(F)cc(F)c3)NC(=O)Cn3nc(C(F)F)c4c3C(F)(F)[C@@H]3C[C@H]43)nc2c1 (atropisomer, axis not shown; (P)) [Example 24, N—((S)-1-((3P)-3-(4-chloro-1-methyl-3-(methylsulfonamido)-1H-indazol-7-yl)-7-(3-methoxy-3-methylbutyl)-4-oxo-3,4-dihydroquinazolin-2-yl)-2-(3,5-difluorophenyl)ethyl)-2-((3bS,4aR)-3-(difluoromethyl)-5,5-difluoro-3b,4,4a,5-tetrahydro-1H-cyclopropa[3,4]cyclopenta[1,2-c]pyrazol-1-yl)acetamide] | 10.41 | > 500 nM
8 | Cn1nc(NS(C)(=O)=O)c2c(Cl)ccc(-n3c([C@H](Cc4cc(F)cc(F)c4)NC(=O)Cn4nc(C(F)F)c5c4C(F)(F)[C@@H]4C[C@H]54)nc4cc(C(F)(F)C5CCC5)ccc4c3=O)c21 (atropisomer, axis not shown; (P)) [Example 25, N—((S)-1-((3P)-3-(4-chloro-1-methyl-3-(methylsulfonamido)-1H-indazol-7-yl)-7-(cyclobutyldifluoromethyl)-4-oxo-3,4-dihydroquinazolin-2-yl)-2-(3,5-difluorophenyl)ethyl)-2-((3bS,4aR)-3-(difluoromethyl)-5,5-difluoro-3b,4,4a,5-tetrahydro-1H-cyclopropa[3,4]cyclopenta[1,2-c]pyrazol-1-yl)acetamide] | 9.12 | > 500 nM
9 | Cn1nc(NS(C)(=O)=O)c2c(Cl)ccc(-n3c([C@H](Cc4cc(F)cc(F)c4)NC(=O)Cn4nc(C(F)F)c5c4C(F)(F)[C@@H]4C[C@H]54)nc4cc(C5(C(F)(F)F)CC5)ccc4c3=O)c21 (atropisomer, axis not shown; (P)) [Example 27] | 9.89 | > 500 nM
10 | Cn1nc(NS(C)(=O)=O)c2c(Cl)ccc(-n3c([C@H](Cc4cc(F)cc(F)c4)NC(=O)Cn4nc(C(F)F)c5c4C(F)(F)[C@@H]4C[C@H]54)nc4cc(CCC(=O)N5CCOCC5)ccc4c3=O)c21 [Example 1, N—((S)-1-((3P)-3-(4-chloro-1-methyl-3-(methylsulfonamido)-1H-indazol-7-yl)-7-(3-morpholino-3-oxopropyl)-4-oxo-3,4-dihydroquinazolin-2-yl)-2-(3,5-difluorophenyl)ethyl)-2-((3bS,4aR)-3-(difluoromethyl)-5,5-difluoro-3b,4,4a,5-tetrahydro-1H-cyclopropa[3,4]cyclopenta[1,2-c]pyrazol-1-yl)acetamide] | 10.02 | > 1000 nM
11 | CC1NCCNC1c1ccc2c(=O)n(-c3ccc(Cl)c4c(NS(C)(=O)=O)nn(C)c34)c([C@H](Cc3cc(F)cc(F)c3)NC(=O)Cn3nc(C(F)F)c4c3C(F)(F)[C@@H]3C[C@H]43)nc2c1 (stereo partly drawn) [Example 10, N-((1S)-1-((3P)-3-(4-chloro-1-methyl-3-(methylsulfonamido)-1H-indazol-7-yl)-7-(3-methylpiperazin-2-yl)-4-oxo-3,4-dihydroquinazolin-2-yl)-2-(3,5-difluorophenyl)ethyl)-2-((3bS,4aR)-3-(difluoromethyl)-5,5-difluoro-3b,4,4a,5-tetrahydro-1H-cyclopropa[3,4]cyclopenta[1,2-c]pyrazol-1-yl)acetamide] | 9.03 | > 1000 nM
12 | O=C(Cn1nc(C(F)F)c2c1C(F)(F)[C@@H]1C[C@H]21)N[C@@H](Cc1cc(F)cc(F)c1)c1nc2cc(C3=CCOCC3)ccc2c(=O)n1-c1ccc(Cl)c2c(NS(=O)(=O)C3CC3)nn(CC(F)F)c12 [Example 16, N—((S)-1-((3P)-3-(4-chloro-3-(cyclopropanesulfonamido)-1-(2,2-difluoroethyl)-1H-indazol-7-yl)-7-(3,6-dihydro-2H-pyran-4-yl)-4-oxo-3,4-dihydroquinazolin-2-yl)-2-(3,5-difluorophenyl)ethyl)-2-((3bS,4aR)-3-(difluoromethyl)-5,5-difluoro-3b,4,4a,5-tetrahydro-1H-cyclopropa[3,4]cyclopenta[1,2-c]pyrazol-1-yl)acetamide] | 9.52 | > 500 nM

From patent US20210393633A1, “INHIBITORS OF HUMAN IMMUNODEFICIENCY VIRUS REPLICATION” (ViiV HEALTHCARE UK (NO.5) LIMITED, priority 2018, published 2021)
